Measurements reported in patent publication US20100222404A1, “INDAZOLE DERIVATIVE DIHYDROCHLORIDE” (ASAHI KASEI PHARMA CORPORATION, priority 2008, published 2010).

What was measured:
[1] = Test for measuring solubility (Test Example 1, saturated solution by HPLC); assay type: physicochemical; settings: for solubility thermodynamic at 1 h: thermodynamic from solid, room temperature, read-out: Saturated solution concentration
Experimental: About 50 mg each of the “monohydrochloride salt” and the “dihydrochloride salt” were precisely weighed, and were each suspended in a solvent so as to obtain a concentration of 500 mg/ml, respectively. Each suspension was sonicated for 10 minutes, and then was shaken at room temperature for one hour. Subsequently, each of the supernatant of the suspension was subjected to centrifugal filtration (10° C., 3000 RPM, 20 minutes) using a centrifugal filter (Ultrafree-MC PTFE 0.2 μm, manufactured by Millipore, Inc.), to thereby prepare a saturated solution. Each of the saturated solutions was analyzed by HPLC, and the concentration of the saturated solution was calculated from the peak area.

[2] = Blood concentration measurement test (AUC after oral enteric capsule); assay type: in vivo, male beagle dogs; settings: for AUC(0-inf): dog, compound 1 free form measured in blood plasma, read-out: AUCinf mean; for AUC(0-inf) / AUCinf CV (coefficient of variation): male beagle dogs, fasting, oral enteric capsule, 1 mg/kg as free form
Experimental: The “monohydrochloride salt” and the “dihydrochloride salt” were respectively filled in an enteric capsule (Eudragit L coat, No. 5) to an amount of administration of 1 mg/kg in terms of the “compound 1” in a free form. The capsules were forcibly orally administered to male beagle dogs (Oriental Yeast Co., Ltd.) under fasting. 0.5, 1, 2, 3, 4, 6, 8, 10 and 24 hours after the administration, about 1 mL of blood was collected from the cephalic vein under non-anesthesia conditions, with a 2.5-mL syringe through which a heparin sodium solution had been passed through in advance (equipped with a 23 G injection needle). The collected blood was cooled in ice, and the blood plasma was separated by a centrifugal operation. After a lapse of 6 hours from the administration, the dogs were fed with a usual amount of food. The concentration of the “compound 1” in a free form in the blood plasma was measured by the LC/MS/MS method in each case, and the AUC was calculated using the Non-Compartment model of WinNonlin software v5.0.1. (in the table, AUCinf means the “AUC obtained when the blood plasma concentration was extrapolated from zero to the infinity”, mean is the “average”, SD is the “standard deviation”, and CV is the “coefficient of variation”.)

[3] = Test for measuring solubility (Test Example 2, saturated solution by HPLC); assay type: physicochemical; settings: room temperature; for solubility thermodynamic at 1 h: thermodynamic from solid, read-out: Saturated solution concentration
Experimental: The “dihydrochloride salt” was precisely weighed in the amounts indicated in Table 2, and 20 ml each of the solvent was added to the weighed samples. The samples were shaken for one hour at room temperature. After it was visually checked that the samples were not completely dissolved, the samples were centrifuged (10° C., 3000 RPM, 20 minutes), and the supernatant was filtered through a Membrane filter, to thereby produce saturated solutions. Each of the saturated solutions was analyzed by HPLC, and the concentration of the saturated solution was calculated from the peak area.

[4] = aqueous buffer, pH 6.8 Buffer solution (phosphate buffer solution)
[5] = saline or isotonic, Physiological saline, shaken one hour
[6] = simulated gastric fluid, pH 1.2 Buffer solution (1st fluid for dissolution test)

Row | solubility thermodynamic at 1 h [1, 4] | solubility thermodynamic at 1 h [1, 5] | solubility thermodynamic at 1 h [1, 6] | solubility thermodynamic at 1 h ([1]; Water, shaken one hour) | AUC(0-inf) [2] | AUCinf CV (coefficient of variation) [2] | Solubility compared with the monohydrochloride salt ([1]; results of Table 1) | Saturated solution concentration ([3]; Ethanol, 0.1 g in 20 ml) | solubility thermodynamic at 1 h ([3]; aqueous buffer, pH 4.0 Buffer solution (0.05 mol/L acetic acid/sodium acetate), 4 g in 20 ml) | solubility thermodynamic at 1 h ([3]; aqueous buffer, pH 6.8 Buffer solution (2nd fluid for dissolution test), 4 g in 20 ml) | solubility thermodynamic at 1 h ([3]; saline or isotonic, Physiological saline, 5 g in 20 ml) | solubility thermodynamic at 1 h ([3]; simulated gastric fluid, pH 1.2 Buffer solution (1st fluid for dissolution test), 4 g in 20 ml) | solubility thermodynamic at 1 h ([3]; Water, 5 g in 20 ml) | Variation of the AUC (CV) compared with the monohydrochloride salt ([2]; dogs, oral administration using enteric capsules) | Structure (SMILES)
1 | 23.7 mg/mL | 32.2 mg/mL | 73.5 mg/mL | 36.7 mg/mL | 1110 ng·h/mL | 70.0% |  |  |  |  |  |  |  |  | Cc1n[nH]c2cc(OCCNC[C@H](O)c3cccc(NS(C)(=O)=O)c3)ccc12.Cl [monohydrochloride salt, (R)—N-[3-[2-[2-(3-methylindazol-6-yloxy)ethylamino]-1-hydroxyethyl]phenyl]methanesulfonamide hydrochloride, reference compound]
2 | 210 mg/mL | 125 mg/mL | 128 mg/mL | 189 mg/mL | 1390 ng·h/mL | 29.5% | significantly higher solubility | 0.516 mg/mL | 147 mg/mL | 156 mg/mL | 98.8 mg/mL | 97.8 mg/mL | 143 mg/mL | smaller | Cc1n[nH]c2cc(OCCNC[C@H](O)c3cccc(NS(C)(=O)=O)c3)ccc12.Cl.Cl [dihydrochloride salt, (R)—N-[3-[2-[2-(3-methylindazol-6-yloxy)ethylamino]-1-hydroxyethyl]phenyl]methanesulfonamide dihydrochloride]
